Measured values taken from patent US12617767B2, “Crystalline forms of somatostatin modulators” (Crinetics Pharmaceuticals, Inc., priority 2019, dated 2026).
In brackets after ≈: the same amount, converted by molar mass. Read-outs that look alike come from different tables or passages of the source. Each block holds one compound with its values, some of them ahead of it.

Tests used:
Format in all cases: physicochemical
[1] = Slurries of amorphous material (dissolution at room temperature); conditions: room temperature (20-23° C.)
Procedure: About 22 mg of amorphous material was dispensed into vials and 0.5 mL (ca. 23 volumes) of the chosen solvent was added, and the mixture was stirred at room temperature (20-23° C.). A solution was formed in water and water saturated MeOAc. Additional solid was added to these solutions, but when a solution remained after roughly doubling the original solid quantity (ca. 90 mg/mL), further addition was ceased. All the other samples remained as slurries. After slurrying for 4 hours, an aliquot was taken for XRPD analysis of the slurry solids from all the samples except the water and water saturated MeOAc samples as they remained solutions. The mixtures continued to stir at room temperature overnight then the remaining slurry solids were collected (total slurry time of about 24 hours).

[2] = Humidity stress tests (XRPD, HPLC purity); conditions: 40° C./75% RH/7 days
Procedure: Pattern A was heated to 277° C., monitored by DSC. […] This material was exposed to ˜90% RH at room temperature and slurried in ACN and after 4 hours the Patterns B and I were recovered, respectively.
About 15 mg of Compound A⋅2MSA (Pattern A) was loaded into a 4 mL vial and the opening was covered with a Kimwipe. This was placed in a 20 mL vial with saturated aqueous K2SO4 and sealed to provide an environment of 94-96% Relative Humidity (RH) at room temperature (RT).
About 10 mg of Compound A⋅2MSA Pattern A and Pattern B were loaded into separate 4 mL vials. These were placed in 20 mL vials with saturated aqueous NaCl and sealed to provide an environment of 75% RH at 40° C. […] The same 1 week study was done with Pattern C (+I) and Pattern I, both remained stable by XRPD.

[3] = Equilibrium solubility in simulated fluids and water at 37° C.; conditions: for solubility at 24 h: above calibration range
Procedure: The solubility Compound A⋅2MSA, Patterns A, B and I, was measured in water, fasted state simulated gastric fluid (FaSSGF) and fasted state simulated intestinal fluid (FaSSIF) at 37° C. by slurrying in the respective media for 24 hours. 1.5 mL of the fluid was stirred at 37° C. About 5 mg of the specified solid was added to FaSSIF and a thin slurry was immediately formed. As a test, approximately 80 and 60 mg of Pattern A was added to 1.5 mL of water and FaSSGF, respectively without formation of a slurry. Therefore, about 10 mg of the desired Pattern was added to water and FaSSGF solutions. The samples were allowed to stir at 37° C. for 24 hrs. The stir bars were removed from the FaSSIF vials and the solids allowed to settle for 0.5 hours at 37° C. The supernatant/solutions were syringe filtered and recovered for analysis by HPLC as well as for pH measurement.

[4] = Karl-Fischer titration for water determination
Procedure: Karl-Fischer titration for water determination was done using a Mettler Toledo C20S Coulometric KF Titrator equipped with a current generator cell with a diaphragm, and a doubleplatinum-pin electrode. Aquastar™ CombiCoulomat fritless reagent was used in both the anode and cathode compartments. Samples of approximately 0.03-0.10 g were dissolved in the anode compartment and titrated until the solution potential dropped below 100 mV. Hydranal 1 wt. % water standard is used for validation prior to sample analysis.

[5] = Dynamic Vapor Sorption (DVS)
Procedure: Dynamic Vapor Sorption (DVS) was done using a DVS Intrinsic 1. The sample is loaded into a sample pan and suspended from a microbalance. A typical sample mass for DVS measurement is 25 mg. Nitrogen gas bubbled through distilled water provides the desired relative humidity.
A typical measurement comprises the steps: • 1—Equilibrate at 50% RH • 2-50% to 2%. (50%, 40%, 30%, 20%, 10% and 2%) • a. Hold minimum of 5 mins and maximum of 240 minutes at each humidity. The pass criteria is less than 0.002% change • 3-2% to 95% (2%, 10%, 20%, 30%, 40%, 50%, 60%, 70%, 80%, 90%, 95%) • a. Hold minimum of 5 mins and maximum of 240 minutes at each humidity. The pass criteria is less than 0.002% change • 4-95% to 2% (95%, 80%, 70%, 60%, 50%, 40%, 30%, 20%, 10%, 2%) • a. Hold minimum of 5 mins and maximum of 240 minutes at each humidity. The pass criteria is less than 0.002% change • 5-2% to 50% (2%, 10%, 20%, 30%, 40%, 50%) • a. Hold minimum of 5 mins and maximum of 240 minutes at each humidity. The pass criteria is less than 0.002% change Dynamic Vapor Sorption Isotherm Plots of Solid Forms of Compound A⋅2MSA

[6] = Storage at ambient conditions (XRPD); conditions: bulk, 6 days at ambient conditions; dimesylate
Procedure: Characterization after storage under ambient conditions: Pattern B was left at ambient conditions (21-22° C., 10-40% RH) for a week then characterized by)(RFD, TGA/DSC, and water content measured by Karl-Fischer titration. […] The water content was confirmed by KF titration which yielded a value of 4.20 wt. %.
Compound A⋅2MSA (Pattern A, 0.2622 g) was added to a 20 mL vial with a stir bar. Fifteen volumes (3.93 mL) of EtOH was added and the slurry was stirred overnight (˜20 hours). The slurry was sampled to confirm the correct pattern was generated, then the solids were collected by filtration. The resultant yellow solid was dried in a vacuum oven at 50° C. under dynamic vacuum for 2 hours, then under static vacuum overnight (˜16 hours) to yield 0.2015 g (77% yield). The in-situ sample drawn was dried for 3 hours then the solid was used for characterization by solution ^1H-NMR spectroscopy and simultaneous TGA/DSC. The bulk was dried overnight and used for stand-alone DSC, and thermal treatment.
(§1) Compound A⋅2MSA (Pattern A) was slurried in EtOH overnight at room temperature (ca. 16 hours). […] The bulk was dried in a vacuum oven at 50° C. under dynamic vacuum for 4.5 hours. The dried solids were removed from the oven and a “dry” XRPD analysis was collected.
Compound A⋅2MSA (Pattern A, 0.2659 g) was added to a 20 mL vial with a stir bar. Twenty-five volumes (6.65 mL) of ACN was added and the slurry was stirred overnight (˜20 hours). The slurry was sampled to confirm the correct pattern was generated, then the solids were collected by filtration. The resultant yellow solid was dried in a vacuum oven at 50° C. under dynamic vacuum for 2 hours, then under static vacuum overnight (˜16 hours) to yield 0.2255 g (85% yield). The sample drawn was dried for 3 hours then the solid was used for characterization by solution ^1H-NMR spectroscopy and simultaneous TGA/DSC. The bulk was dried overnight and used for stand-alone DSC.

[7] = Stability of XRPD pattern on drying; conditions: solids from short term slurries; vacuum oven at 50° C., minimum of 4 hours; dimesylate
Procedure: Short term slurries were carried out at two temperatures in 14 solvents. About 25 mg solid was added to a 2 mL vial followed by 0.70 mL of solvent. If all solids dissolved, more solid was added until a slurry was formed within reason. Slurries were stirred at constant temperature for four days (ambient temperature, 21-23° C.; or high temperature, 50° C.). After stirring for four days, solids were allowed to settle and were then recovered for XRPD analysis. XRPD analysis was performed on the wet cake, and if a new pattern was observed, the sample was dried in a vacuum oven at 50° C. for a minimum of 4 hours, then the dried sample was analyzed by XRPD.
Stability on Drying: A sample of Pattern B was prepared on an XRPD sample holder and analysed by XRPD to create a baseline. The disk was then left in a vacuum oven at 50° C. under static vacuum for 3 days. On the third day, the sample was removed from the oven and the “dry” pattern was recorded immediately.
as §1

- concentration at which a solution remained ([1]; water saturated MeOAc): > 90000 µg/mL
- concentration at which a solution remained ([1]; water): > 90000 µg/mL
SMILES: CS(=O)(=O)O.CS(=O)(=O)O.N#Cc1cccc(-c2ccc3ncc(-c4cc(F)cc(F)c4)c(N4CCC(N)CC4)c3c2)c1O [Amorphous Compound A⋅2MSA, 3-(4-(4-aminopiperidin-1-yl)-3-(3,5-difluorophenyl)quinolin-6-yl)-2-hydroxybenzonitrile dimesylate]

- Output XRPD [2]: C + I
SMILES: CS(=O)(=O)O.CS(=O)(=O)O.N#Cc1cccc(-c2ccc3ncc(-c4cc(F)cc(F)c4)c(N4CCC(N)CC4)c3c2)c1O [C + I, 3-(4-(4-aminopiperidin-1-yl)-3-(3,5-difluorophenyl)quinolin-6-yl)-2-hydroxybenzonitrile dimesylate]

- pH (24 hr) ([3]; FaSSGF (pH 1.70)): 1.82
- comments ([3]; FaSSGF (pH 1.70), 24 hrs): dissolved
- solubility at 24 h ([3]; FaSSGF, 37 °C, pH 1.7, fassgf or other biorelevant, thermodynamic from solid, FaSSGF (pH 1.70), 24 hrs, mg of Compound A (free base), read-out: Concentration): > 10300 µg/mL
- pH (24 hr) ([3]; FaSSIF (pH 6.48)): 6.11
- comments ([3]; FaSSIF (pH 6.48), 24 hrs): disproportionated
- solubility thermodynamic at 24 h ([3]; FaSSIF, 37 °C, pH 6.48, fassif, thermodynamic from solid, FaSSIF (pH 6.48), 24 hrs, mg of Compound A (free base), read-out: Concentration): 9 µg/mL (≈ 0.0197 mM)
- pH (24 hr) ([3]; water): 2.71
- solubility at 24 h ([3]; water, 37 °C, water, thermodynamic from solid, water, 24 hrs, mg of Compound A (free base), read-out: Concentration): > 9770 µg/mL
- comments ([3]; water, 24 hrs): dissolved
- Water Content [4]: 1.5% w/w
SMILES: N#Cc1cccc(-c2ccc3ncc(-c4cc(F)cc(F)c4)c(N4CCC(N)CC4)c3c2)c1O [Compound A, 3-(4-(4-aminopiperidin-1-yl)-3-(3,5-difluorophenyl)quinolin-6-yl)-2-hydroxybenzonitrile]

- XRPD form after the DVS experiment ([5]; 2-95% RH, dimesylate): converted to Pattern B
- reversible water uptake (DVS) ([5]; between 2% and 95% Relative Humidity (RH), dimesylate): 9.1 % w/w
- water uptake (DVS) ([5]; between 15 and 75% RH): 2.5 % w/w
- total mass difference on the desorption segment (DVS) ([5]; over the 2-95% RH range): 4.6%
- total mass difference on the sorption segment (DVS) ([5]; over the 2-95% RH range): 9.1%
- mass change (DVS) ([5]; range of 15-75% RH): 2.5 wt. %
- Water Content ([4]; dimesylate): 0.29% w/w
- XRPD pattern after storage at ambient conditions [6]: a pattern with additional peaks
- XRPD pattern upon drying [7]: stable upon drying
SMILES: CS(=O)(=O)O.CS(=O)(=O)O.N#Cc1cccc(-c2ccc3ncc(-c4cc(F)cc(F)c4)c(N4CCC(N)CC4)c3c2)c1O [Pattern I, 3-(4-(4-aminopiperidin-1-yl)-3-(3,5-difluorophenyl)quinolin-6-yl)-2-hydroxybenzonitrile dimesylate]
